According to patent publication US20230266302A1, “SYNTHESIS AND USE OF N-BENZYL SULFONAMIDES” (THE UNIVERSITY OF TULSA, priority 2020, published 2023):

Assays:
Experiment in all cases: Cytotoxicity testing, CellTiter-Blue assay (FIG. 9)
Type in all cases: cell-based
Conditions in all cases: 100 μM, 24 hour compound incubation, result in words
[1] = tested on: MCF10A (non-cancerous breast)
Method: (§1) The cytotoxicity tests were carried out in the following manner. Living cells are known to convert resazurin to the fluorescent compound resorufin. Test systems which rely upon this reaction are commercially available. One such test is known at the Cell Titer Blue Cell Viability test assay from Promega. Cell cultures for each of the identified cancer lines were obtained from ATCC and maintained in Dulbecco's Modified Eagle Medium (DMEM) supplemented with 10% fetal bovine serum (FBS) and pen/strep. As known to those skilled in the art, DMEM typically includes the components identified below.
(§2) The test method provides for incubating the cell cultures at 37° C. Additionally, the cell cultures are kept under an atmosphere containing 5% CO2. After allowing for proliferation of the cells, the cells were distributed across a plurality of test cells containing from 100 μL DMEM plus 10% FBS and allowed to attach to the surface of the cells. Typically, the time for attachment will require about 12 hours to about 18 hours. Following attachment, the cells were treated with either a solvent control or the N-benzyl sulfonamide compound of interest dissolved in a suitable solvent such as but not limited to DMSO. Typically, about 18 hours to about 36 hours are required to determine the effect of the N-benzyl sulfonamide compound of interest on cell viability. Following treatment of the cells with the N-benzyl sulfonamide or control, the toxicity of the compound to the cells will be determined by addition of 10 μl of CellTiter-Blue reagent, i.e. resazurin. Typically, the resazurin is added between about 18 hours to about 36 hours after treating the cells with the N-benzyl sulfonamides or the control. The cells are allowed to consume and convert the resazurin to resorufin for about one to four hours. Subsequently, the fluorescence of […] is measured by excitation at 560 nm and recording the emission at 590 nm within an instrument configured to measure fluorescence intensity. Two commercially available systems are the BioTek Cytation 5 plate reader and the Promega Glomax Multi+detection system. […] The method for determining IC50 values is well known in the art and will not be discussed further. As known to those skilled in the art, IC50 is a quantitative measure that indicates how much of a particular inhibitory substance (e.g. drug) is needed to inhibit, in vitro, a given biological process or biological component by 50%. Therefore, each N-benzyl sulfonamide will be tested over a range of concentrations. Typically, the concentration ranges will be: 6.25 μM, 12.5 μM, 25 μM, 50 μM, and 100 μM. The control in this method is normally dimethyl […] (DMSO) or other solvent suitable for dissolving the compounds to be tested. FIG. 8 depicts the % cell viability for the indicated compounds depicted in FIG. 7.
(§3) The Table of FIG. 9 provides the results of cytotoxicity testing a 100 μM concentration of compounds 2, 5-9, 11-12, 14, 16, 18-22 of FIG. 7 against the indicated cancer cell lines using CellTiter-Blue assay with 24 hour compound incubation time. FIG. 9 reflects the percent reduction in cell viability resulting from the treatment of the indicated cancer cell lines with the indicated compounds. As indicated by the boxed values in FIG. 9, compounds 2, 5, and 6 would be considered effective against H293. […] The Table of FIG. 10 provides a comparison of the IC50 values of select compounds from FIG. 7 to the IC50 values of two known anti-cancer sulfonamides, ABT-751 and Indisulam. As indicated by FIG. 10, the identified compounds performed remarkably better than the known anti-cancer agents. Thus, the identified compounds are expected to have greater anti-cancer potency.

HeLa (cervical cancer) = tested on: HeLa (cervical cancer)
Method: as §1, §2, §3

NCI-H196 (lung cancer) = tested on: NCI-H196 (lung cancer)
Method: as §1, §2, §3

Cc1ccc(S(=O)(=O)NCc2c[nH]c3cccc(Br)c23)cc1 [Compound 5, N-[(4-bromo-1H-indol-3-yl)methyl]-4-methylbenzenesulfonamide]
displayed effectiveness: percent reduction in cell viability, MCF10A [1] | percent reduction in cell viability, HeLa (HeLa (cervical cancer)) | percent reduction in cell viability, NCI-H196 (NCI-H196 (lung cancer))
